This is an account of results in patent US9884854B2, “N-[(pyrimidinylamino)propanyl]-and N[(pyrazinylamino)proppanyl]arylcarboxamides” (Boehringer Ingelheim International GmbH, priority 2016, dated 2018).

This experiment concerns the target T1, human orexin 2 receptor (Homo sapiens, UniProt O43614).
T1 construct: stably expressing the full-length human orexin 2 receptor and the aequorin photoprotein; expressed in transfected cells; host or cells: CHO-K1 (CHO-K1/hOx2), co-expressing aequorin
T1 sequence (O43614 1-444): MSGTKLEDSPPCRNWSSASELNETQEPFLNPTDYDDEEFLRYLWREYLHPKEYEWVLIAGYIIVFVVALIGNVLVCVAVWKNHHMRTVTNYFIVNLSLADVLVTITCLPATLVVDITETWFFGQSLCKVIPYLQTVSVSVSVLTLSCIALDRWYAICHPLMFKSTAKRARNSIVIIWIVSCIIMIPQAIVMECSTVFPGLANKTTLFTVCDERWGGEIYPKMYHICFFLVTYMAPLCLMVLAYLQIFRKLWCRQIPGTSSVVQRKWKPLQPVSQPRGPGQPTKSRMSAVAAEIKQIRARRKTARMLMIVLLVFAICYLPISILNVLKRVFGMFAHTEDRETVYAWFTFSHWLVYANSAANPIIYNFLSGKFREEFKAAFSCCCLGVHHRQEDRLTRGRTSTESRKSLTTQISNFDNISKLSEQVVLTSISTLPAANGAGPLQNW
Kind of experiment: Assay B: OX2R IP1 (in vitro OX2R potency). The experiment is classed as cell-based. As to conditions: 0.5 nM Orexin A concentration. The text has this: Activation of the orexin receptors expressed in cell lines results in an increase in intracellular IP3 concentration. IP1, a downstream metabolite of IP3, accumulates in cells following receptor activation and is stable in the presence of LiCl. Using Homogeneous Time-Resolved Fluorescence technology with Lumi4-Tb cryptate (commercially available from Cisbio Bioassay.) and a suitable fluorescence plate reader. […] Chem. Genomics 2009, 3, 22-32. This technique is used to characterize pharmacological modification of the orexin receptors.
B. In Vitro Testing of OX2R Potency: OX2R IP1
IP1 measurements are performed in CHO-K1 cells stably expressing the full-length human orexin 2 receptor and the aequorin photoprotein. Cells are cultivated in Ham's nutrient mixture F12 medium with 10% fetal calf serum, in a 37° C., 95% humidity and 5% CO2 incubator. The CHO-K1/hOx2 cell mass is expanded to larger cell numbers. The cells are obtained as frozen cells in cryo-vials and stored until use at −150° C. The viability of the cells after thawing is >90%. In preparation for the assay, 24 hours before the assay, the cells are thawed at 37° C. and immediately diluted with cell culture medium. After centrifugation, the cell pellet is resuspended in medium and then distributed into the assay plates with a density of 5000 cells/25 μL per well. The plates are incubated for one hour at room temperature to reduce edge effects before they are incubated for 24 hours at 37° C./5% CO2. Compounds are prepared by a 8-point serial dilution in DMSO and a final dilution step into assay buffer (HBSS with 20 mM HEPES, 0.1% BSA and 50 mM LiCl, pH 7.4) to ensure a final DMSO concentration of 1% in the assay. On the day of the assay, cells in the plate are washed twice with 60 μL assay buffer (20 μL buffer remained in the wells after washing), followed by adding 5 μL per well of compounds diluted in assay buffer. After 15 minutes of incubation at room temperature 5 μL per well of Orexin A peptide (final concentration: 0.5 nM) dissolved in assay buffer is added to the assay plate. The assay plate is incubated for 60 minutes at 37° C. Then 5 μl per well of Anti-IP1-Cryptate Tb solution and 5 μl per well of IP1-d2 dilution are added to all well of the plate and the plate is incubated for a further 60 minutes light protected at room temperature. The emission at 615 nm and 665 nm (Excitation wavelength: 320 nm) are measured using an EnVision reader (PerkinElmer). The ratio between the emission at 665 nm and 615 is calculated by the reader.
8-point four parametric non-linear curve fitting and determination of IC50 values and Hill slopes is performed using a regular analysis software e.g. AssayExplorer (Accelrys). In order to establish an agonist concentration independent parameter, Kb values are calculated using the following equation: IC50/((2+(A/EC50)n)^1/n−1) (with A=concentration agonist, EC50=EC50 agonist, n=Hill slope agonist) (see P. Leff, I. G. Dougall, Trends Pharmacol. Sci. 1993, 14(4), 110-112).
Kb values from Assay A (OX1R) and Assay B (OX2R) can then provide a selectivity ratio which is independent of the agonist (Orexin A) concentration.
Regarding `CCN(C(=O)c1nc(C)ccc1-n1nccn1)[C@@H](C)CNc1ncc(C(F)(F)F)cn1` [Example 9], the Kb came out at 32.9 nM.
`CCN(C(=O)c1cccc(F)c1-n1nccn1)[C@@H](C)CNc1ncc(C(F)(F)F)cn1` [Example 18] yielded a Kb of 18 nM.
The compound `CCN(C(=O)c1ccccc1-n1nccn1)[C@@H](C)CNc1ncc(C(F)(F)F)cn1` [Example 1] displayed a Kb of 19.4 nM.
`CCN(C(=O)c1cnc(C)nc1-c1ccccc1)[C@@H](C)CNc1ncc(C(F)(F)F)cn1` [Example 17] registered a Kb of 54 nM.
